# Test results as given in patent US6143764A, “Quinoline and quinazoline derivatives inhibiting platelet-derived growth factor receptor autophosphorylation and pharmaceutical compositions containing the same” (priority 1995, dated 2000).
# Molecular target: T1, PDGF receptor (Rattus norvegicus, UniProt Q05030)
# T1 construct: cultured rat mesangial cells which are known to have the PDGF receptor; endogenous in cells; host or cells: primary mesangial cells cultured from glomeruli of Wistar-Kyoto rats (Charles River Japan), more than 5 passages
# T1 sequence (Q05030 32-1097): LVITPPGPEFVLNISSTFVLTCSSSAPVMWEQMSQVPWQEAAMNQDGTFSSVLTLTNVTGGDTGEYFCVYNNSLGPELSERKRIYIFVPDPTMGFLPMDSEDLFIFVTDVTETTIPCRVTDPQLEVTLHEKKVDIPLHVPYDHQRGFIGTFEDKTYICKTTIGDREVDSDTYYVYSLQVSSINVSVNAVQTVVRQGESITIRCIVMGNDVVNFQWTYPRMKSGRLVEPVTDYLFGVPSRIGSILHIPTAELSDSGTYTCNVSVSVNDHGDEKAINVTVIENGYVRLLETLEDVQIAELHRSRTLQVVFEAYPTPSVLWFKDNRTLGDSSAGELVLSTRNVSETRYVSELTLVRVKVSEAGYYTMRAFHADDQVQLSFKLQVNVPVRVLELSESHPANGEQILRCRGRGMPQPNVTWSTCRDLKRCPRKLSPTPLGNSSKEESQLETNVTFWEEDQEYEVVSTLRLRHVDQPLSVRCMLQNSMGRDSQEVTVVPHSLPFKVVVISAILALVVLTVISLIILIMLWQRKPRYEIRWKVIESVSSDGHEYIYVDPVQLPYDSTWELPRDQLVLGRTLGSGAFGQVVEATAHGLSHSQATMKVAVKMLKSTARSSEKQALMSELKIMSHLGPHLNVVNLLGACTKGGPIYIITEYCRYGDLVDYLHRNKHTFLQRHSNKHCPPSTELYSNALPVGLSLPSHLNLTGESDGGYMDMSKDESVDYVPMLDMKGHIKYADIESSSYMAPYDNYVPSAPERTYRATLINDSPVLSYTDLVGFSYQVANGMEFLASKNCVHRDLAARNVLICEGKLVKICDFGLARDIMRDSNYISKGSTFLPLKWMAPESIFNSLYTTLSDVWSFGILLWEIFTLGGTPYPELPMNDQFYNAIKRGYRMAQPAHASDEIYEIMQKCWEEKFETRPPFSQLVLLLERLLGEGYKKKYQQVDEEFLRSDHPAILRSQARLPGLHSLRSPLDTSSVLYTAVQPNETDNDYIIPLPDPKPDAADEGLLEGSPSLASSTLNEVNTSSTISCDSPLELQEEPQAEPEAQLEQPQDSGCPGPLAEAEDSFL
# Test: PDGF receptor autophosphorylation inhibition in cultured rat mesangial cells
# Type: cell-based
# Conditions: PDGF-BB 50 ng/ml
# Method: 1. Cultivation of rat mesangial cells
# The glomerulus-derived adhesive cells were subcultured several times to obtain mesangial cells. The mesangial cells subcultured more than 5 passages were used for the assay.
# 2.Evaluation of PDGF receptor autophosphorylation inhibition
# The mesangial cells were seeded in 24-well flat-bottom microtiter plates and then cultured in the medium containing 10% FCS for 2 days. When the cells were grown to about 3×10^4 cells per well, the medium was changed to the medium containing 0.5% FCS, the cultivation was continued for another 3 days, and then cell growth was arrested. The culture medium was removed, the adhered cells were washed with 500 μl of the medium, and 250 μl of the medium containing 0.1% bovine serum albumin (hereinafter abbreviated to BSA) was then added. A test drug dissolved in 1.38 μl of dimethyl sulfoxide (hereinafter abbreviated to DMSO) was added to this culture medium, and the admixture was incubated at 37° C. for 1 hour. Recombinant human platelet-derived growth factor BB chain (hereinafter abbreviated to PDGF-BB) was dissolved in the medium containing 0.1% BSA, 25 μl per well of the solution was added at final 50 ng/ml, and the incubation was continued at 37° C. for 10 minutes. […] The cells were allowed to stand at 4° C. for 30 minutes for lysis, and the resulting solution was thoroughly admixed with an equal amount of Tris-buffered physiological saline containing 1% sodium dodecyl sulfate (hereinafter abbreviated to SDS). […] After the electrophoresis, proteins in the gel were electrically transferred to a PVDF filter, which was then subjected to Western blotting using monoclonal antibodies against phosphotyrosine. Bands of PDGF receptor (molecular weight: about 180 Kda) which were autophosphorylated due to the addition of PDGF-BB were quantitated by a densitometer. Autophosphorylation rates for individual wells with drugs were calculated by setting measurements for PDGF receptor autophosphorylation in the wells without drugs in the presence and absence of PDGF-BB as 100% and 0%, respectively.
row,SMILES,IC50 [nM]
1,"COc1cc2nccc(Oc3ccc(NC(=O)Nc4ccc([N+](=O)[O-])cc4Cl)cc3)c2cc1OC [Compound 224, N-(2-Chloro-4-nitrophenyl)-N'-{4-[(6,7-dimethoxy-4-quinolyl)oxy]phenyl}urea]",87
2,"COc1cc2nccc(Oc3ccc(NC(=O)Nc4c(C)cccc4Cl)cc3)c2cc1OC [Compound 226, N-(2-Chloro-6-methylphenyl)-N'-{4-[(6,7-dimethoxy-4-quinolyl)oxy]phenyl}urea]",11
3,"COc1cc2nccc(Oc3ccc(NC(=O)Nc4ccc(Cl)cc4[N+](=O)[O-])cc3)c2cc1OC [Compound 238, N-(4-Chloro-2-nitrophenyl)-N'-{4-[(6,7-dimethoxy-4-quinolyl)oxy]phenyl}urea]",16
4,"COc1cc2nccc(Oc3ccc(NC(=O)NC(=O)c4ccccn4)cc3)c2cc1OC [Compound 240, N-{4-[(6,7-dimethoxy-4-quinolyl)oxy]phenyl}-N'-(2-pyridinecarbonyl)urea]",150
5,"COCCCNC(=O)Nc1ccc(Oc2ccnc3cc(OC)c(OC)cc23)cc1 [Compound 245, N-(3-Methoxypropyl)-N'-{4-[(6,7-dimethoxy-4-quinolyl)oxy]phenyl}urea]",6
6,COc1cc2nccc(Oc3ccc(NC(=O)NCc4ccncc4)cc3)c2cc1OC [Compound 250],17
7,"COc1cc2nccc(Oc3ccc(NC(=O)NCc4ccc(N(C)C)cc4)cc3)c2cc1OC [Compound 251, N-{4-[(6,7-Dimethoxy-4-quinolyl)oxy]phenyl}-N'-[(4-dimethylaminophenyl)methyl]urea]",36
8,"COc1cc2nccc(Oc3ccc(NC(=O)Nc4ccc(F)c(F)c4F)cc3)c2cc1OC [Compound 257, N-(2,3,4-Trifluorophenyl)-N'-{4-[(6,7-dimethoxy-4-quinolyl)oxy]phenyl}urea]",7
9,"COc1ccc(OC)c(NC(=O)Nc2ccc(Oc3ccnc4cc(OC)c(OC)cc34)cc2)c1 [Compound 258, N-(2,5-Dimethoxyphenyl)-N'-{4-[(6,7-dimethoxy-4-quinolyl)oxy]phenyl}urea]",7
10,"COc1cc2nccc(Oc3ccc(NC(=O)Nc4c(F)cccc4F)cc3)c2cc1OC [Compound 263, N-(2,6-Difluorophenyl)-N'-{4-[(6,7-dimethoxy-4-quinolyl)oxy]phenyl}urea]",4
11,"COc1cc2nccc(Oc3ccc(NC(=O)Nc4ccc(O)cc4)cc3)c2cc1OC [Compound 269, N-(4-Hydroxyphenyl)-N'-{4-[(6,7-dimethoxy-4-quinolyl)oxy]phenyl}urea]",8
12,"COc1cc2nccc(Oc3ccc(NC(=O)Nc4ccc(OC(C)=O)cc4)cc3)c2cc1OC [Compound 270, N-(4-Acetoxyphenyl)-N'-{4-[(6,7-dimethoxy-4-quinolyl)oxy]phenyl}urea]",6
13,"COc1cc2nccc(Oc3ccc(NC(=O)Nc4cc(OC)c(OC)c(OC)c4)cc3)c2cc1OC [Compound 271, N-(3,4,5-Trimethoxyphenyl)-N'-{4-[(6,7-dimethoxy-4-quinolyl)oxy]phenyl}urea]",4
14,"COc1cc2nccc(Oc3ccc(NC(=O)Nc4ccc(N)cc4Cl)cc3)c2cc1OC [Compound 274, N-(4-Amino-2-chlorophenyl)-N'-{4-[(6,7-dimethoxy-4-quinolyl)oxy]phenyl}urea]",36
15,"COc1cc2nccc(Oc3ccc(NC(=O)NCCCCl)cc3)c2cc1OC [Compound 278, N-(3-Chloropropyl)-N'-{4-[(6,7-dimethoxy-4-quinolyl)oxy]phenyl}urea]",3
16,"COc1cc2nccc(Oc3ccc(NC(=O)Nc4ccc(Oc5ccc(F)cc5)nc4)cc3)c2cc1OC [Compound 279, N-{5-[2-(4-fluoro)phenoxy]-pyridyl}-N'-(4-[(6,7-dimethoxy-4-quinolyl)oxy]phenyl}urea]",29
17,"COc1cc2nccc(Oc3ccc(NC(=O)Nc4cccc(C(=O)O)c4)cc3)c2cc1OC [Compound 283, N-(3-Hydroxycarbonylphenyl)-N'-{4-[(6,7-dimethoxy-4-quinolyl)oxy]phenyl}urea]",2

# The remaining lines, values ahead:
row,IC50 [nM],SMILES
1,55,"COc1cc2nccc(Oc3ccc(NC(=O)Nc4ccc(Cl)c([N+](=O)[O-])c4)cc3)c2cc1OC [Compound 228, N-(4-Chloro-3-nitrophenyl)-N'-{4-[(6,7-dimethoxy-4-quinolyl)oxy]phenyl}urea]"
2,34,"COc1cc2nccc(Oc3ccc(NC(=O)Nc4c(Cl)cccc4Cl)cc3)c2cc1OC [Compound 230, N-(2,6-Dichlorophenyl)-N'-{4-[(6,7-dimethoxy-4-quinolyl)oxy]phenyl}urea]"
3,19,"COc1cc2nccc(Oc3ccc(NC(=O)NC(C)c4cccc5ccccc45)cc3)c2cc1OC (centres unmarked) [Compound 231, N-{4-[(6,7-dimethoxy-4-quinolyl)oxy]phenyl)-N'-[1-(1-naphthyl)ethyl]urea]"
4,18,"CCCCc1ccccc1NC(=O)Nc1ccc(Oc2ccnc3cc(OC)c(OC)cc23)cc1 [Compound 232, N-(2-n-Butylphenyl)-N'-(4-[(6,7-dimethoxy-4-quinolyl)oxy]phenyl}urea]"
5,13,"CCOC(=O)c1cccc(NC(=O)Nc2ccc(Oc3ccnc4cc(OC)c(OC)cc34)cc2)c1 [Compound 233, N-(3-Ethoxycarbonylphenyl)-N'-{4-[(6,7-dimethoxy-4-quinolyl)oxy]phenyl}urea]"
6,5,"COc1cc2nccc(Oc3ccc(NC(=O)Nc4ccc(Cl)cc4N)cc3)c2cc1OC [Compound 239, N-(2-Amino-4-chlorophenyl)-N'-{4-[(6,7-dimethoxy-4-quinolyl)oxy]phenyl}urea]"
7,18,"COc1cc(OC)c(NC(=O)Nc2ccc(Oc3ccnc4cc(OC)c(OC)cc34)cc2)cc1Cl [Compound 241, N-(3-Chloro-4,6-dimethoxyphenyl)-N'-{4-[(6,7-dimethoxy-4-quinolyl)oxy]phenyl}urea]"
8,13,"COCCNC(=O)Nc1ccc(Oc2ccnc3cc(OC)c(OC)cc23)cc1 [Compound 246, N-(2-Methoxyethyl)-N'-{4-[(6,7-dimethoxy-4-quinolyl)oxy]phenyl}urea]"
9,9,"COc1cc2nccc(Oc3ccc(NC(=O)NCc4ccccn4)cc3)c2cc1OC [Compound 247, N-(4-[(6,7-Dimethoxy-4-quinolyl)oxy]phenyl)-N'-(2-pyridylmethyl)urea]"
10,63,"COc1cc2nccc(Oc3ccc(NC(=O)NCc4ccc(C(C)(C)C)cc4)cc3)c2cc1OC [Compound 248, N-[(4-tert-Butylphenyl)methyl]-N'-{4-[(6,7-dimethoxy-4-quinolyl)oxy]phenyl}urea]"
11,41,"COc1cc2nccc(Oc3ccc(NC(=O)NCc4cccnc4)cc3)c2cc1OC [Compound 249, N-(4-[(6,7-Dimethoxy-4-quinolyl)oxy]phenyl)-N'-(3-pyridylmethyl) urea]"
12,7,"COc1cc2nccc(Oc3ccc(NC(=O)NC4CCCCC4)cc3)c2cc1OC [Compound 253, N-(Cyclohexyl)-N'-{4-[(6,7-dimethoxy-4-quinolyl)oxy]phenyl}urea]"
13,4,"COc1cc2nccc(Oc3ccc(NC(=O)Nc4c(F)cc(F)cc4F)cc3)c2cc1OC [Compound 256, N-(2,4,6-Trifluorophenyl)-N'-{4-[(6,7-dimethoxy-4-quinolyl)oxy]phenyl}urea]"
14,5,"COc1cc(NC(=O)Nc2ccc(Oc3ccnc4cc(OC)c(OC)cc34)cc2)cc(OC)c1 [Compound 259, N-(3,5-Dimethoxyphenyl)-N'-{4-[(6,7-dimethoxy-4-quinolyl)oxy]phenyl}urea]"
15,5,"COc1ccc(NC(=O)Nc2ccc(Oc3ccnc4cc(OC)c(OC)cc34)cc2)c(OC)c1 [Compound 265, N-(2,4-Dimethoxyphenyl)-N'-{4-[(6,7-dimethoxy-4-quinolyl)oxy]phenyl}urea]"
16,1,"COc1cc2nccc(Oc3ccc(NC(=O)Nc4ccccc4Cl)cc3)c2cc1OC [Compound 266, N-(2-Chlorophenyl)-N'-{4-[(6,7-dimethoxy-4-quinolyl)oxy]phenyl}urea]"
17,7,"COc1cc2nccc(Oc3ccc(NC(=O)Nc4cccc(OC)c4OC)cc3)c2cc1OC [Compound 268, N-(2,3-Dimethoxyphenyl)-N'-{4-[(6,7-dimethoxy-4-quinolyl)oxy]phenyl}urea]"
18,5,"COc1cc2nccc(Oc3ccc(NC(=O)Nc4cc(F)ccc4F)cc3)c2cc1OC [Compound 273, N-(2,5-Difluorophenyl)-N'-{4-[(6,7-dimethoxy-4-quinolyl)oxy]phenyl}urea]"
19,5,"COc1cc2nccc(Oc3ccc(NC(=O)Nc4ccccc4SC)cc3)c2cc1OC [Compound 276, N-(2-Methylthiophenyl)-N'-{4-[(6,7-dimethoxy-4-quinolyl)oxy]phenyl}urea]"
20,12,"COc1cc2nccc(Oc3ccc(NC(=O)Nc4ccccc4O)cc3)c2cc1OC [Compound 281, N-(2-Hydroxyphenyl)-N'-{4-[(6,7-dimethoxy-4-quinolyl)oxy]phenyl}urea]"
21,8,"COc1cc2nccc(Oc3ccc(NC(=O)Nc4cccc(O)c4)cc3)c2cc1OC [Compound 282, N-(3-Hydroxyphenyl)-N'-{4-[(6,7-dimethoxy-4-quinolyl)oxy]phenyl}urea]"
